Experimental findings from US20240058298A1, “GENISTEIN FOR USE IN THE TREATMENT OF FOCAL SEGMENTAL GLOMERULOSCLEROSIS (FSGS)” (Delta 4 GmbH, priority 2020, published 2024) are described below.

The test deals with adriamycin induced nephropathy (FSGS model). Nature of the test: Adriamycin induced nephropathy mouse model of FSGS, proteinuria (UPCR, UACR) in spot urine. Format: in vivo, Female Balb/c mice. As to conditions: for urinary protein to creatinine ratio (UPCR): Balb/c mice, adriamycin 10.5 mg/kg i.v., chow + genistein 500 mg/kg (about 80 mg/kg mouse/day) from day 2, weekly spot urine, vs control chow. As to the method: For biological testing of genistein, the accepted mouse models of FSGS, was chosen, i.e. the adriamycin induced nephropathy. […] All animal experiments and handling were in accordance with the Austrian law for protection of animals and approved by the animal ethics committee of the Austrian ministry for science and research.
Adriamycin (Doxorubicin; Sigma, D1515-10 mg) was diluted in ddH2O. To induce FSGS, a dose of 10.5 mg/kg mouse was injected i.v. into the tail vein using 27G needles, i.e. a total volume of 200 μl volume per 25 g mouse.
For tail vein injection, mice were anaesthetized using Ketanest (Pfizer, 25 mg/ml vials) and Rompun (Bayer, 20 mg/ml injection solution). A final mix of 12.5 mg/ml Ketanest and 0.25% Rompun in 0.9% NaCl solution was prepared and 200 μl/25 g mouse were injected. Genistein (Selleckchem, S1342) was used for therapy experiments.
Female Balb/c mice were obtained from the animal breeding facility of the Medical University (Abteilung kw Labortierkunde, Himberg, Austria). 8-18 weeks old animals with a weight >17g were used for the experiments and adjusted for weight and age. Animals were allowed acclimatization of at least 7 days. Animal were marked by ear or toe clip codes to allow identification. Adriamycin nephropathy in Balb/c mice is the most commonly used animal model for preclinical FSGS studies and shares the central features with human FSGS.
Standard commercial chow from ssniff (ssniff Spezialdiäten GmbH, Soest, Germany) contained crude protein (19%), crude fat (3.3%), crude fiber (4.9%), crude ash (6.4%), starch (36.5%), sugar (4.7%). Control group animals were fed standard chow, test group animals standard chow+genistein (500 mg/kg) produced by ssniff. All animals were allowed to eat ad libitum assuming a daily average uptake of about 4 grams/mouse (according to animal care guideline of the Johns Hopkins University, Baltimore, MD, USA; http://web.jhu.edu/animalcare/ procedures/mouse.html), i.e. about 80 mg genistein/kg mouse/day (Odle et al. 2017).
Spot urine was collected every week and Creatinine and protein levels were measured in the Clinical Institute for Laboratory Medicine of the Medical University Vienna.
Urinary albumin was measured by ELISA. 96-well plates were coated over night at 4° C. with 100 μl antibody solution Anti Mouse Serum Albumin antibody (Abcam ab34807, Lot GR3242102-4; diluted 1:2,000) in coating buffer (3.7g NaHCO3; 0.64 g Na2CO3; 1L distilled water). The remaining procedure was performed at room temperature. Wells were washed 3× with HBSS (Sigma H8264-500ML) +0,05% Tween-20 (Bio-Rad, #1706531) and blocked in ELISA/ELISPOT Diluent (eBioscience, 00-4202-56) and washed again for 3×. Samples and standard curve were both diluted in ELISA/ELISPOT diluent were incubated for 2 h, followed by 3 wash steps with HBSS+0.05% Tween-20, incubated with HRP antibody Anti Mouse Serum Albumin antibody (Abcam ab19195, Lot GR3242102-4; diluted 1:100,000) for 1 h, followed by 5 was steps. Reaction was developed with TMB One Solution (Promega, G7431) and stopped with 2N H2SO4. Standard curves were generated with Mouse Albumin (Merck/Sigma, 126674-25MG). 450nm absorbance was measured on an Epoch Microplate reader (BioTek) using Gen5 1.10 software.
R version 4.0.2 was used for statistical analysis. Student's t-test was used for comparing UPCR and UACR values between samples from treated and control mice for each individual time point and to assess differences in histological parameters. […]

Consider `O=c1c(-c2ccc(O)cc2)coc2cc(O)cc(O)c12` [Genistein, 5,7-Dihydroxy-3-(4-hydroxyphenyl)chromen-4-one], for which the “urinary protein to creatinine ratio (UPCR)” value was “marked amelioration”. Besides, where the note is “listed as compound of the present invention”, the “urinary protein to creatinine ratio (UPCR)” value is “significantly lowered”. Moreover, the Proteinuria entry (adriamycin FSGS mice, genistein chow vs control) is on record as “Significantly Reduces”. The “impact of genistein treatment over time on outcome determined based on UPCR levels (repeated measures ANOVA)” value (adriamycin FSGS mice, genistein chow vs control, all collected urines (FIG. 1)) is given as “significant beneficial impact”. Moreover, the “urine albumin/creatinine ratio (UACR)” value (animal studies, urinary albumin by ELISA, genistein vs control) was “significantly lowered”.
